The values that follow come from patent EP1369117A1, “Use of derivatives and precursors of oxaziridine in the treatment of cancerous tumours” (priority 2002, dated 2003).

Converted amounts (≈) assume the structure as drawn. Read-outs that look alike come from different tables or passages of the source.

What all share (type): cell-based
Assay [1] has as its system P388 (Lignée lymphoblastoïde murine). In words: MTT test, anti-tumour activity on P388 cell line. The conditions noted are these: for IC50: Mus musculus. As for the experimental part:
(§1) Différents composés de l'invention ont été testés pour leurs activités anti-tumorales sur différentes lignées tumorales murines ou humaines et comparés à des produits anti-tumoraux connus.
(§2) Les lignées cellulaires testées sont la lignée lymphoblastoïde murine P388, la lignée de mélanome murin B16, la lignée de kératinocytes humains HaCaT, la lignée de mélanome humain HBL.
(§3) L'action anti-tumorale des composés de l'invention a été testée sur ces différentes lignées après différentes durées d'incubation (30 minutes, 2 heures, 3 heures, 48 heures ou 72 heures).
(§4) En outre, différents types d'irradiation, différentes durées d'irradiation (30 minutes ou 60 minutes) ainsi que différentes durées d'incubation ont été testés.
(§5) Les différents résultats sont présentés dans le tableau 1 annexé.

Assay [2] has as its system B16 (Lignée de mélanome murin). In words: MTT test, anti-tumour activity on B16 cell line. The conditions noted are these: for IC50: Mus musculus, B16, light or radiation study. As for the experimental part: as §1, §2, §3, §4, §5
The subject of assay [3] is HBL (Lignée de mélanome humain). The assay can be described thus: MTT test, anti-tumour activity on HBL cell line. The conditions noted are these: Homo sapiens, rest 24 h, incubation 3 h, 4°C, incubation before MTT test 45 h, read-out: Dose efficace DL50. As for the experimental part: as §1, §2, §3, §4, §5
For orientation: Tetrazolium assays rely on reduction of a dye to a coloured formazan, in cell work by metabolically active cells.

The subject of assay [4] is HaCaT (Lignée de kératinocytes humains). The assay can be described thus: MTT test, anti-tumour activity on HaCaT cell line. As to conditions: Homo sapiens, rest 24 h, incubation 3 h, 4°C, incubation before MTT test 45 h, read-out: Dose efficace DL50. As for the experimental part:
as §1, §2, §3, §4, §5

[5] abbreviates: light or radiation study, P388, rest after culture 24 h, incubation 2 h, no irradiation, incubation before MTT test 48 h, read-out: Dose efficace DL50.
Where [6] appears, read: P388, rest after culture 24 h, incubation 48 h, no irradiation, incubation before MTT test 0 h.
[7] abbreviates: B16, rest after culture 24 h, incubation 2 h, no irradiation, incubation before MTT test 72 h, read-out: Dose efficace DL50.
[8] abbreviates: B16, rest after culture 24 h, incubation 72 h, no irradiation, incubation before MTT test 0 h, read-out: Dose efficace DL50.
[9] abbreviates: light or radiation study, UVA Cléo + filtre UVB + polyéthylène, irradiation 60 min.
[10] abbreviates: P388, rest after culture 24 h, incubation 2 h, no irradiation, incubation before MTT test 48 h.
The mark [11] stands for this setting: B16, rest after culture 24 h, incubation 2 h, no irradiation, incubation before MTT test 72 h.
The mark [12] stands for this setting: B16, rest after culture 24 h, incubation 72 h, no irradiation, incubation before MTT test 0 h.
Setting [13] is: P388, light or radiation study, read-out: Dose efficace DL50, P388, rest after culture 24 h, incubation 2 h, no irradiation, incubation before MTT test 48 h.
[14] abbreviates: P388, light or radiation study, read-out: Dose efficace DL50, P388, rest after culture 24 h, incubation 48 h, no irradiation, incubation before MTT test 0 h.
The mark [15] stands for this setting: read-out: Dose efficace DL50, B16, rest after culture 24 h, incubation 2 h, no irradiation, incubation before MTT test 72 h.
Setting [16] is: read-out: Dose efficace DL50, B16, rest after culture 24 h, incubation 72 h, no irradiation, incubation before MTT test 0 h.

On to `N[C@@H](Cc1ccc(N(CCCl)CCCl)cc1)C(=O)O` [Melphalan, reference compound], for which the entries for the “Dose efficace DL50” value in assay [1] and in assay [2] were 7 µg/mL and 10 µg/mL, respectively. In addition, the IC50 in assay [1] (P388, light or radiation study, read-out: Dose efficace DL50) is 9 µg/mL (≈ 29.5 µM); in assay [2] (read-out: Dose efficace DL50) it was 12 µg/mL (≈ 39.3 µM).
Regarding `CNC1=Nc2ccc(Cl)cc2C(c2ccccc2)=[N+]([O-])C1` [chlordiazépoxide, chlorodiazépoxide, reference compound], the IC50 in assay [1] (setting [5]) is over 100 µg/mL; in assay [2] (B16, rest 24 h, incubation 30 min, lampe de Wood, RT, irradiation 30 min, no time before washing (---), incubation before MTT test 72 h, read-out: Dose efficace DL50) it was 7 µg/mL (≈ 23.4 µM); in assay [2] (B16, rest 24 h, incubation 30 min, lampe de Wood, RT, irradiation 30 min, time before washing 1 h, incubation before MTT test 72 h, read-out: Dose efficace DL50) it was 9 µg/mL (≈ 30 µM); in assay [2] (setting [7]), over 100 µg/mL; in assay [2] (setting [8]), over 100 µg/mL; in assay [3] (setting [9]), 12 µg/mL. Also, the IC50 is over 100 µg/mL in assay [3] (no light source (---), 30 min); 36 µg/mL in assay [4] (light or radiation study, UVA Cléo + filtre UVB + polyéthylène, irradiation 30 min); 24 µg/mL in assay [4] (setting [9]); over 100 µg/mL in assay [4] (no light source (---), 30 min). Besides, in assay [1] (setting [6]), the “Dose efficace DL50” value is over 100 µg/mL.
For the compound `CNC1=Nc2ccccc2C(c2ccccc2)=[N+]([O-])C1` [deschlordiazépoxide, deschlorodiazépoxide], the “Dose efficace DL50” value in assay [1] (setting [10]), in assay [1] (setting [6]), in assay [2] (setting [11]) and in assay [2] (setting [12]) was over 100 µg/mL each time.
Turning to `O=C1C[N+]([O-])=C(c2ccccc2)c2cc(Cl)ccc2N1` [démoxépan, demoxepan], the IC50 in assay [1] (setting [5]), in assay [2] (setting [7]) and in assay [2] (setting [8]) was over 100 µg/mL each time. The “Dose efficace DL50” value in assay [1] (setting [6]) is over 100 µg/mL.
`CNC1=Nc2ccc(Cl)cc2C2(c3ccccc3)ON2C1` (centres unmarked) [oxaziridine du chlordiazépoxide, oxaziridine de chlorodiazépoxide]: the IC50 in assay [1] (setting [13]) is 41 µg/mL (≈ 137 µM); in assay [1] (setting [14]), 34 µg/mL (≈ 113 µM); in assay [2] (setting [15]), 32 µg/mL (≈ 107 µM); in assay [2] (setting [16]) it was 15 µg/mL (≈ 50 µM).
As for `O=C1CN2OC2(c2ccccc2)c2cc(Cl)ccc2N1` (centres unmarked) [oxaziridine du démoxépan, oxaziridine de demoxepan], the IC50 came to 62 µg/mL (≈ 216 µM) in assay [1] (setting [13]), 22 µg/mL (≈ 76.7 µM) in assay [1] (setting [14]), 22 µg/mL (≈ 76.7 µM) in assay [2] (setting [15]) and 11 µg/mL (≈ 38.4 µM) in assay [2] (setting [16]).
Consider “oxaziridine de deschlorodiazépoxide [oxaziridine du deschlordiazépoxide]”, for which the “Dose efficace DL50” value in assay [1] (setting [10]) worked out at 22 µg/mL; in assay [1] (setting [6]), 12 µg/mL; in assay [2] (setting [11]), 14 µg/ml μg/ml; in assay [2] (setting [12]), 8 µg/ml μg/ml.
